The data set in a line: in vitro. To be noted: human, hela cells, % viability.

On to `COc1cccc(OC)c1OCCN1CCC(CNC(=O)Nc2cccc(C(F)(F)F)c2)CC1` [CBK051512T], for which the viability (in general, a read-out of living cells in per cent, often relative to untreated cells) at 28.5 h, 10 µM is 96.7%.

In the case of `O=C1[C@H]2CN(S(=O)(=O)c3ccc(F)cc3)CCN2C(=O)N1CCO` [CBK289640], the viability at 28.5 h, 10 µM came to 84.5%. Turning to `O=C(NCc1c(F)cccc1F)c1ccc2nc[nH]c2c1` [CBK153315], the viability at 28.5 h, 10 µM came to 83%. As to `O=c1c(-c2nncn2-c2ccccc2)coc2c(O)c(O)ccc12` [CBK266889], the viability at 28.5 h, 10 µM was 102%.

Consider `N#Cc1ccccc1N1CCN(c2cncc(-c3ccc(F)cc3F)n2)CC1` [CBK065708], for which the viability at 28.5 h, 10 µM was found to be 102%. As to `Cc1cc2cc(CN(CC3CCCO3)C(=O)C3CC3)c(Cl)nc2cc1C` (stereo not drawn) [CBK109881], the viability at 28.5 h, 10 µM amounted to 101%. With `C=CCn1c(-c2sc(NC(=O)Cn3c(=O)n(CCC)c4ccccc43)nc2C)n[nH]c1=S` [CBK297890], the viability at 28.5 h, 10 µM amounted to 97.7%.

Consider `Cn1cc(C(=O)N2CCc3nc(-c4cccc(F)c4)sc3C2)cn1` [CBK281910], for which the viability at 28.5 h, 10 µM was 94.5%.

Consider `CCC(C)C(NC(=O)c1ccccc1NC(=O)c1ccc(OC)cc1)C(=O)O` (stereo not drawn) [CBK296090], for which the viability at 28.5 h, 10 µM came to 91.4%. As for `COc1ccc(CNC(=O)c2cc(S(=O)(=O)N(C)C)ccc2OC)cc1` [CBK307586], the viability at 28.5 h, 10 µM was determined as 85.1%. Regarding `CC(C)NC(=O)CN1CCC(N(C)Cc2cccc(C(F)(F)F)c2)CC1` [CBK305429], the viability at 28.5 h, 10 µM stood at 95%. On to `c1ccc2cc(OCc3ccc(-c4nccnc4-c4nnn[nH]4)cc3)ccc2c1` [CBK050818], for which the viability at 28.5 h, 10 µM came out at 93.9%. As for `O=C(NCCn1nc(-c2cccs2)oc1=O)C1CCCC1` [CBK282345], the viability at 28.5 h, 10 µM turned out to be 105%. Consider `CCOC(=O)CN1CCN(C(=O)Nc2ccccc2OC(F)(F)F)CC1` [CBK043656], for which the viability at 28.5 h, 10 µM worked out at 97%. The value for `COc1ccc(-c2cc(C3CCN(C4CCSCC4)C3)[nH]n2)cc1` (stereo not drawn) [CBK285282] was 99.3%. The result for `COc1cc(/C=N/NC(=O)c2cccnc2)cc([N+](=O)[O-])c1O` [CBK262233] reads 86.4%; that for `O=C(O)c1ccc2c(c1)CCN2S(=O)(=O)c1ccc(S(=O)(=O)N2CCOCC2)cc1` [CBK295625], 97.1%; that for `CC(=O)N1CCc2cc(NC(=O)c3cc4cc(C)ccc4o3)ccc21` [CBK281470], 86.2%. With `CC(C)NC(=O)C1(Cc2ccc(-c3ccccc3)cc2)CCN(C(=O)C2CCCC2)CC1` [CBK285751], the viability at 28.5 h, 10 µM is 101%. Regarding `COc1ccc(Cn2nc(NC(=O)c3cnc4ccccc4n3)c3ccccc32)cc1` [CBK048343], the viability at 28.5 h, 10 µM came to 93%. Turning to `Cc1ccc(C)c(-c2nc(-c3cccnc3)no2)c1` [CBK288018], the viability at 28.5 h, 10 µM stood at 102%. With `CCn1c(CN2CCC(n3nc(C)cc3C)CC2)nc2ccccc21` [CBK281615], the viability at 28.5 h, 10 µM turned out to be 88.5%. The value for `c1cc(-c2n[nH]c(C3CCNCC3)n2)ccn1` [CBK104676C] was 85.2%; that for `C/C(=N\NC(=O)CSc1nc2ccccc2n1Cc1ccccc1)c1ccco1` [CBK263180] was 118%; that for `CCc1cc(C(=O)Nc2nn(C)c3cccc(N4CCOCC4)c23)cs1` [CBK307419] was 110%. With `CCC1CCCCN1C(=O)c1c(Cl)cccc1Cl` (stereo not drawn) [CBK081303], the viability at 28.5 h, 10 µM came to 99.3%. For `CCOC(=O)C(NC(=O)c1c(C)nn(C)c1C)c1cccc(C)c1C` (stereo not drawn) [CBK304253], the viability at 28.5 h, 10 µM turned out to be 98.9%. On to `COC(=O)Cn1c(=O)sc2cccc(Cl)c21` [CBK026076], for which the viability at 28.5 h, 10 µM was 93.9%. Consider `CC1CCN(C(=O)CCn2c(C(F)F)cc3cccnc32)CC1` [CBK284982], for which the viability at 28.5 h, 10 µM amounted to 85.6%. `Cc1ccc([N+](=O)[O-])cc1/C=C(/C#N)c1nc2ccccc2s1` [CBK267085]: the viability at 28.5 h, 10 µM amounted to 95.4%. Consider `O=c1[nH]c(=O)c2cc(S(=O)(=O)Nc3cccc(CCc4ccccn4)c3)ccc2[nH]1` [CBK286389], for which the viability at 28.5 h, 10 µM turned out to be 97.9%. The result for `CCOC(=O)c1ccccc1NC(=O)CC1Nc2ccccc2NC1=O` (stereo not drawn) [CBK263990] reads 91.3%; that for `NC(=O)c1cc([N+](=O)[O-])ccc1NCCN1C(=O)c2ccc(C(=O)O)cc2C1=O` [CBK264444], 105%; that for `O=C(NCc1ccccc1OC1CCNC1)c1ccccc1` (stereo not drawn) [CBK028301T], 114%. As to `CCN1CCN(C(=O)c2ccc(CN(c3ccc(C)c(C)c3)S(C)(=O)=O)cc2)CC1` [CBK267132], the viability at 28.5 h, 10 µM stood at 92.6%. For the compound `CCn1c2cc(C)sc2c2cnn(CC(=O)OC)c(=O)c21` [CBK284186], the viability at 28.5 h, 10 µM was determined as 86.3%. As to `O=C(c1cc2c(s1)CCC2)N1CCc2c(nc[nH]c2=O)C1` [CBK283703], the viability at 28.5 h, 10 µM is 101%. With `CCOC(=O)C1CCN(S(=O)(=O)c2cccs2)CC1` [CBK051137], the viability at 28.5 h, 10 µM worked out at 92.4%.

Turning to `CC(C)Cc1ccc(-c2cc(Nc3ccc(O)cc3)ncn2)cc1` [CBK090754], the viability at 28.5 h, 10 µM was 93.6%.

For the compound `CC(=O)Nc1ccc(S(=O)(=O)Nc2cc(C)c(-n3nc4ccccc4n3)cc2O)cc1` [CBK268382], the viability at 28.5 h, 10 µM stood at 81.2%. For `Cc1nc(-c2ccc(NCCc3nc(C4CC4)cs3)nc2)[nH]c(=O)c1C` [CBK304424], the viability at 28.5 h, 10 µM amounted to 108%. The result for `O=C(NCc1ccc(F)cc1)N1CCCC(CO)C1` (stereo not drawn) [CBK156056] reads 102%; that for `COc1ccc(-c2n[nH]c(=S)n2CCC(=O)NCCc2cc(C)n(-c3ccccc3)c2C)cc1` [CBK295632], 97.6%; that for `CO[C@H]1CC[C@H](C(=O)N2C3CCC2CC(O)(c2ccco2)C3)CC1` (stereo partly drawn) [CBK284107], 96.7%.

For `Cn1nccc1C(=O)NC(Cc1cccs1)c1nccs1` (stereo not drawn) [CBK285055], the viability at 28.5 h, 10 µM stood at 102%. On to `Cc1n[nH]c2c1CN(Cc1nc(C)c(C)n1C)CC2` [CBK307456], for which the viability at 28.5 h, 10 µM was 84.7%. `OC12CCCCC1CN(Cc1nc3ccccc3[nH]1)CC2` (stereo not drawn) [CBK282995]: the viability at 28.5 h, 10 µM came to 93.9%. As for `Oc1cc(Cc2ccccc2)cnc1CN1CCOCC1` [CBK288173], the viability at 28.5 h, 10 µM was determined as 94%. Turning to `Nc1nonc1C(=NCc1ccccc1)NO` [CBK261109], the viability at 28.5 h, 10 µM was 105%.

For the compound `O=C(C1CCCC1)N1CC(n2nc(-c3cccs3)ccc2=O)C1` [CBK283345], the viability at 28.5 h, 10 µM came to 86.8%. In the case of `Clc1ccc(Nc2nnc(-c3[nH]ncc3NCc3ccncc3)o2)cc1` [CBK288588], the viability at 28.5 h, 10 µM amounted to 99%. The result for `O=c1[nH]c2ncc(-c3ccncc3)nc2n1C1CCCC1` [CBK064972] reads 116%.

For the compound `Cc1ccc(C)c(NC(=O)N[C@@H](CC(C)C)C(=O)O)c1` [CBK286678], the viability at 28.5 h, 10 µM stood at 89%. The result for `Cc1nc(CCNC(=O)c2nn(-c3cccc(C(C)C)c3)cc2O)cs1` [CBK305438] reads 109%. As for `Nc1nnc(SCC(=O)NC23CC4CC(CC(C4)C2)C3)s1` [CBK267417], the viability at 28.5 h, 10 µM was found to be 97.1%. Turning to `COc1ccc(C2Nc3ccccc3C(=O)N2c2ccc(C)cc2)cc1Cn1nc(C)c([N+](=O)[O-])c1C` (stereo not drawn) [CBK263703], the viability at 28.5 h, 10 µM came out at 106%. The value for `Cc1nc2ccccc2n1CC(=O)N(Cc1cccnc1)C1CC1` [CBK305248] was 109%. Consider `O=[N+]([O-])c1cccc(-c2nc(-c3ccccc3)c(-c3ccc4oc5ccc(-c6[nH]c(-c7cccc([N+](=O)[O-])c7)nc6-c6ccccc6)cc5c4c3)[nH]2)c1` [CBK261433], for which the viability at 28.5 h, 10 µM was found to be 87.5%.

Turning to `O=C(CCCSc1nc2sc3c(c2c(=O)[nH]1)CCCC3)NCCO` [CBK263336], the viability at 28.5 h, 10 µM came to 90.9%. Turning to `CCNc1cc2ccccc2c(-c2ccc(OC)c(C)c2)n1` [CBK089644], the viability at 28.5 h, 10 µM came out at 86%.

For `O=C(C1COc2ccccc2O1)N1CCC(Cn2cncn2)(C2CCCCC2)CC1` (stereo not drawn) [CBK136792], the viability at 28.5 h, 10 µM came to 102%. Take `Cc1ccc(-c2nc(C)c(C(=O)Nc3ccc(-n4cncn4)nc3)s2)o1` [CBK297770]: the viability at 28.5 h, 10 µM came to 95.3%. Turning to `O=C(N[C@H]1CCN2C(=O)c3ccccc3NC(=O)[C@H]12)c1cccc(F)c1` [CBK289332], the viability at 28.5 h, 10 µM came out at 89.3%.

`CCN(CC)C(=O)CN1CCC(Oc2cncc(OCCN3CCOCC3)n2)C1` (stereo not drawn) [CBK084490]: the viability at 28.5 h, 10 µM was determined as 101%.

On to `CC(C)C(NC(=O)c1cc2c([nH]c1=O)CCC2)c1ccc(F)cc1` (stereo not drawn) [CBK281662], for which the viability at 28.5 h, 10 µM worked out at 93.4%.

As to `Nc1cc(-c2cccs2)nn(Cc2ccccc2Cl)c1=O` [CBK282884], the viability at 28.5 h, 10 µM turned out to be 91%.

Regarding `O=C(NC(NC1CCS(=O)(=O)C1)C(Cl)(Cl)Cl)c1ccc(Br)cc1` (stereo not drawn) [CBK261091], the viability at 28.5 h, 10 µM was found to be 98.2%. Consider `COc1cc(/C=C/c2cc(C(F)(F)F)[nH]c(=O)n2)c(Cl)cc1O` [CBK287936], for which the viability at 28.5 h, 10 µM is 80%. Consider `NC(=O)c1ccccc1NC(=O)CSc1nc(N)cc(N)n1` [CBK267983], for which the viability at 28.5 h, 10 µM came out at 115%.

Take `CCn1c(N2CCCC(C(=O)NC3CC3)C2)nc2ccccc21` (stereo not drawn) [CBK282419]: the viability at 28.5 h, 10 µM stood at 106%.

On to `Cc1ccc(OC(=O)c2cc(Cl)cnc2Cl)cc1` [CBK090321], for which the viability at 28.5 h, 10 µM worked out at 84.5%. For the compound `COC[C@H]1CCCN1C(=O)CC[C@H]1CNC(=O)[C@@H]2[C@@H](CCN2C(C)C)N1C` [CBK289038], the viability at 28.5 h, 10 µM came to 103%. As to `Cc1sc2nc(C(C)N(C)Cc3cc[nH]n3)[nH]c(=O)c2c1C` (stereo not drawn) [CBK306275], the viability at 28.5 h, 10 µM is 99.3%. Regarding `Cc1ccc2[nH]c(/C(C#N)=C\c3cc(C)n(-c4ccc(S(N)(=O)=O)cc4)c3C)nc2c1` [CBK267611], the viability at 28.5 h, 10 µM turned out to be 105%. `CC(NC(=O)c1ncoc1-c1ccc(F)cc1)c1ccncc1` (stereo not drawn) [CBK282319]: the viability at 28.5 h, 10 µM was found to be 100%. Regarding `COc1cccc2sc(Nc3nc(-c4cccnc4)cs3)nc12` [CBK287470], the viability at 28.5 h, 10 µM came out at 98.5%. The result for `COCCN1CC(CNC(=O)Nc2cc(NC(C)=O)ccc2F)CC1=O` (stereo not drawn) [CBK304398] reads 82.4%.

On to `Cc1cc(COc2ccnc(N3CCCN(CCCC#N)CC3)n2)no1` [CBK084144], for which the viability at 28.5 h, 10 µM came to 96.8%.

Source of the values: publication PMC12040169 (PLOS Biology, 2025).
